The results in this text go back to patent publication US8383550B2, “Defoliant” (Bayer Cropscience AG, priority 2009, dated 2013).

Assay [1] deals with Cotton plants of the cultivar "Carmen". Briefly: Leaf drop effect on cotton plants after spray application (greenhouse). The class given is in vivo. As to conditions: 1 l/ha Actirob B added. On the procedure: (§1) A water application rate of 300 l/ha was initially charged. The components herbicide and adjuvant were then added with stirring at the application rates and in the manner stated in the tables, such that a homogeneous spray liquor was formed. Here, the active ingredients were employed as suspension concentrates (thidiazuron as ®Escalate liquid SC500. Metribuzin as ®Sencor SC 80, thidiazuron+diuron as ®Dropp Ultra SC180) from Bayer CropScience AG. The adjuvant used was ®Actirob B (Novance).
(§2) Cotton seeds of the cultivar “Carmen” were sown at a depth of 1 cm and cultivated in a greenhouse cabin (20000-50000 LUX light: 14 hrs/day; temperature at night: 22° C., during the day: 30° C., rel. atmospheric humidity at night: 65%, during the day 50%) until they had reached the 6-8 leaf stage.
(§3) The plants were treated on a laboratory spray track with spray liquors of thidiazuron and thidiazuron with combination partners. The water application rate for the spray application was 300 l/ha. After the treatment, the plants were returned to the greenhouse cabin.
4 and 8 days after the application, the leaf drop effect was evaluated (leaf drop %): • 0%=no noticeable effect compared to untreated plants; • 100%=all leaves have dropped off.

For assay [2] the test system is unchanged. Nature of the assay: Regrowth of cotton plants, by weighing newly formed leaf material. It counts as in vivo. As to conditions: 2 weeks after application, 1 l/ha Actirob B added, repeated twice. On the procedure:
as §1, §2, §3
2 weeks after the application, the regrowth of the plants was assessed by weighing the newly formed leaf material. The tabular values express the regrowth as a percentage of the untreated control.

Where [3] appears, read: Test 1, dose 30 g of a.i./ha, 0%=no effect, 100%=all leaves dropped.

Consider `O=C(Nc1ccccc1)Nc1cnns1` [thidiazuron], for which the “Leaf drop [%] 8 days after application” value in assay [1] (Test 1, dose 30 g of a.i./ha) is recorded as 63%. In assay [1] (setting [3]), the “Leaf drop [%] 4 days after application” value is 0%. The “Regrowth [%] as a percentage of the untreated control” value in assay [2] (Table 3, dose 30 g of a.i./ha) was “+60%”.
On to `CSc1nnc(C(C)(C)C)c(=O)n1N` [metribuzin], for which the “Leaf drop [%] 4 days after application” value in assay [1] (Test 1, dose 15 g of a.i./ha) turned out to be 0%; in assay [1] (setting [3]) it was 0%; in assay [1] (Test 2, dose 15 g of a.i./ha) it was 0%; in assay [1] (Test 2, dose 30 g of a.i./ha) it was 0%. In addition, the “Leaf drop [%] 8 days after application” value in assay [1] (Test 1, dose 15 g of a.i./ha) is 0%; in assay [1] (Test 1, dose 30 g of a.i./ha), 0%; in assay [1] (Test 2, dose 15 g of a.i./ha) it was 0%; in assay [1] (Test 2, dose 30 g of a.i./ha), 0%. Also, the “Regrowth [%] as a percentage of the untreated control” value in assay [2] (Table 3, dose 15 g of a.i./ha) is listed as 0%; in assay [2] (Table 3, dose 30 g of a.i./ha), 0%; in assay [2] (Table 4, dose 15 g of a.i./ha) it was 0%; in assay [2] (Table 4, dose 30 g of a.i./ha), 0%.
